Tests used:
soybean lipoxygenase = target: T1, soybean lipoxygenase (Glycine max, UniProt P08170); assay: Soybean LOX inhibition in vitro (UV absorbance-based assay); format: biochemical; details: for inhibition at 100 µM / Inhibition of Soybean Lipoxygenase % at 0.1 mM: 0.1 mM
T1 construct: purchased Sigma Chemical, Co. (St. Louis, MO, USA)
T1 sequence (P08170 1-839): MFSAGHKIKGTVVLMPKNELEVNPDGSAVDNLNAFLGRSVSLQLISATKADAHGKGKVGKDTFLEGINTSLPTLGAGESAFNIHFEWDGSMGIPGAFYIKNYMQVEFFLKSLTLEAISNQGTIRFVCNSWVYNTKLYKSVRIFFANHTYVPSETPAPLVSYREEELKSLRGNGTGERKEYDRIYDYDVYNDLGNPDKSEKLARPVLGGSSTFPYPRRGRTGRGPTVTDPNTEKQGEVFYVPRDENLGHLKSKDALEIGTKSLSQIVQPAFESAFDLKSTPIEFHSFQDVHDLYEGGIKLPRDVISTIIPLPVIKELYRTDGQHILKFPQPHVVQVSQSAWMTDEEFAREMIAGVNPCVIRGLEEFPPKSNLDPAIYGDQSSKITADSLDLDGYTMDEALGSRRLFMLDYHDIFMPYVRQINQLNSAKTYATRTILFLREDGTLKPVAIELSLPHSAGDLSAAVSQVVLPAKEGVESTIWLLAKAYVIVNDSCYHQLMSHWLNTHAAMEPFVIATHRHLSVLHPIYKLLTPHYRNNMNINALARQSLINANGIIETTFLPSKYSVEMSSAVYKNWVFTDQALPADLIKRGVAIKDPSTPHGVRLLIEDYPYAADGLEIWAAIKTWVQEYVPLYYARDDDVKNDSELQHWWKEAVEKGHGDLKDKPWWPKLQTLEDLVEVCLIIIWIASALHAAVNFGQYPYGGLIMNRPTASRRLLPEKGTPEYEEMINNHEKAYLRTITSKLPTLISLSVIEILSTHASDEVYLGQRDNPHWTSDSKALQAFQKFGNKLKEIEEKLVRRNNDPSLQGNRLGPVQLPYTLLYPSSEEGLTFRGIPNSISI
Method: For this study, the UV absorbance-based soybean LOX assay was used.
The assay for the determination of the inhibition of soybean LOX was performed according to the methods of Hadjipavlou-Litina et al., which we have also used in our previous works.

[1] = ABTS radical cation decolorization assay; details: 0.1 mM
Method: (§1) In this work, the carboxamides 3a–3u, the quinolinone–cinnamic or benzoic acid hybrids 11a–11g and the reverse amides 16a–16c were tested for their antioxidant activity via five in vitro techniques; (i) the interaction with the stable free radical 2,2-diphenyl-1-picrylhydrazyl (DPPH); (ii) the inhibition of lipid peroxidation; (iii) the hydroxyl radical scavenging ability; (iv) the 2,2-azino-bis(3-ethylbenzothiazoline-6-sulfonic acid (ABTS) radical cation (ABTS·^+) reduction; and (v) the superoxide anion radical scavenging ability.
The experimental technique used in this section was performed according to the methods of Pontiki et al.. The results were compared to the appropriate standard inhibitor Trolox.

[2] = Inhibition of lipid peroxidation of linoleic acid induced by AAPH radical; details: 100 μM
Method: as §1
The assay for the determination of the inhibition of linoleic acid peroxidation induced by the free radical initiator […](2-amidinopropane) dihydrochloride (AAPH) was performed according to the methods of Hadjipavlou-Litina et al., which we have also used in our previous works.

[3] = Competition with DMSO for hydroxyl radicals; details: 0.1 mM
Method: as §1
The assay was performed according to the methods of Pontiki et al. Trolox was used as a reference compound [78].

[4] = Non-enzymatic superoxide anion radical scavenging assay (PMS); details: 0.1 mM
Method: as §1
The experimental technique used for this assay was performed according to our previous works. Caffeic acid was used as an appropriate standard.

[5] = Interaction with the stable free radical DPPH (reducing activity); details: for Interaction with the Free Radical DPPH (%): 100 μM; for DPPH radical scavenging activity, time not specified: reaction time not given
Method: as §1

| Structure (SMILES) | inhibition at 100 µM (soybean lipoxygenase) [%] | ABTS% (ABTS radical cation decolorization) [1] | Inhibition of Lipid Peroxidation of Linoleic Acid Induced by AAPH Radical (%) [2] | OH% (hydroxyl radical scavenging) [3] | PMS% (superoxide anion radical scavenging) [4] | Interaction with the Free Radical DPPH (%) ([5]; 20 min) | Interaction with the Free Radical DPPH (%) ([5]; 60 min) | IC50 (soybean lipoxygenase) [µM] | Inhibition of Soybean Lipoxygenase % at 0.1 mM (soybean lipoxygenase) | DPPH radical scavenging activity, time not specified [5] |
| --- | --- | --- | --- | --- | --- | --- | --- | --- | --- | --- |
| CCCNC(=O)c1c(O)c2ccccc2n(-c2ccccc2)c1=O [Compound 3b, 4-hydroxy-2-oxo-1-phenyl-N-propyl-1,2-dihydroquinoline-3-carboxamide] | 45 | 35.5% | 100% | 40.8% | 84.6% | 2.7 | 11.8 | – | – | – |
| Cn1c(=O)c(C(=O)NCCO)c(O)c2ccccc21 [Compound 3c, 4-hydroxy-N-(2-hydroxyethyl)-1-methyl-2-oxo-1,2-dihydroquinoline-3-carboxamide] | – | 25.6% | 100% | 39.8% | 76.9% | 3.3 | 10.7 | 52 | – | – |
| O=C(NCCO)c1c(O)c2ccccc2n(-c2ccccc2)c1=O [Compound 3d, 4-hydroxy-N-(2-hydroxyethyl)-2-oxo-1-phenyl-1,2-dihydroquinoline-3-carboxamide] | – | no activity and no | 32.8% | no | 66.6% | 15.9 | 20.8 | – | inactive and no | – |
| CCCCCCCNC(=O)c1c(O)c2ccccc2n(C)c1=O [Compound 3e, N-heptyl-4-hydroxy-1-methyl-2-oxo-1,2-dihydroquinoline-3-carboxamide] | – | 2.6% | inactive and no | 86.1% | 66.6% | 6.6 | 12.2 | – | no activity and no | – |
| O=C(Nc1ccc(O)cc1)c1c(O)c2ccccc2n(-c2ccccc2)c1=O [Compound 3g, 4-hydroxy-N-(4-hydroxyphenyl)-2-oxo-1-phenyl-1,2-dihydroquinoline-3-carboxamide] | – | 72.4% | 100% | 67.7% | no | 40.7 | 51.7 | 27.5 | – | – |
| CC1CCCCC1NC(=O)c1c(O)c2ccccc2n(C)c1=O (stereo not drawn) [Compound 3h, 4-hydroxy-1-methyl-N-(2-methylcyclohexyl)-2-oxo-1,2-dihydroquinoline-3-carboxamide] | – | no | 31% | 78.6% | no | 6.0 | 8.1 | 10 | – | – |
| CC1CCCCC1NC(=O)c1c(O)c2ccccc2n(-c2ccccc2)c1=O (stereo not drawn) [Compound 3i, 4-hydroxy-N-(2-methylcyclohexyl)-2-oxo-1-phenyl-1,2-dihydroquinoline-3-carboxamide] | – | no | 36% | 78.1% | no | 5.2 | 3.7 | – | inactive and no | – |
| Cn1c(=O)c(C(=O)Nc2ccccc2O)c(O)c2ccccc21 [Compound 3j, 4-hydroxy-N-(2-hydroxyphenyl)-1-methyl-2-oxo-1,2-dihydroquinoline-3-carboxamide] | – | 49.7% | 32.8% | 100% | no | 32.5 | 46.5 | 100 | – | – |
| Cc1ccccc1NC(=O)c1c(O)c2ccccc2n(C)c1=O [Compound 3k, 4-hydroxy-1-methyl-2-oxo-N-(o-tolyl)-1,2,dihydroquinoline-3carboxamide] | – | 54.5% | 41.4% | totally inactive and no | 61.5% | 1.4 | 11.8 | 315 | – | inactive |
| Cc1ccc(NC(=O)c2c(O)c3ccccc3n(C)c2=O)cc1 [Compound 3l, 4-hydroxy-1-methyl-2-oxo-N-(p-tolyl)-1,2-dihydroquinoline-3-carboxamide] | – | no | no | 53.7% | no | 2.6 | 2.6 | 45 | – | inactive |
| Cn1c(=O)c(C(=O)Nc2ccc(F)cc2)c(O)c2ccccc21 [Compound 3m, N-(4-fluorophenyl)-4-hydroxy-1-methyl-2-oxo-1,2-dihydroquinoline-3-carboxamide] | 15 | 12.4% | 11.3% | 94.0% | no | 3.1 | 1.2 | – | – | inactive |
| O=C(NCCc1ccc(O)cc1)c1c(O)c2ccccc2n(-c2ccccc2)c1=O [Compound 3n, 4-hydroxy-N-(4-hydroxyphenethyl)-2-oxo-1-phenyl-1,2-dihydroquinoline-3-carboxamide] | – | no | 100% | 14.9% | no | 13.9 | 19.2 | 85 | – | – |

— publication PMC10780633, “Novel Multi-Target Agents Based on the Privileged Structure of 4-Hydroxy-2-quinolinone” (Molecules, 2023)
